Assay results as given in patent publication US11685739B2, “High penetration drugs and their compositions thereof for treatment of Parkinson diseases” (TECHFIELDS PHARMA CO., LTD, priority 2013, dated 2023).
Where two headings read alike, the source gives them in different places.

How the values were obtained:
[1] = system: motor function deficits induced by 6-OHDA in Parkinson's disease (PD) model; assay: Rotarod test in rats with 6-OHDA lesion, Parkinson's disease (PD) model; format: in vivo, Sprague-Dawley rats; conditions: for Side effects (dyskinesia at peak dose, end-of-dose deterioration of function etc.): L-DOPA orally
[2] = system: motor function deficits induced by 6-OHDA in Parkinson's disease (PD) model; assay: as above; format: in vivo, Sprague-Dawley rats; conditions: Example 31; L-DOPA orally, pro-drug transdermally
Method: Test subjects (Sprague-Dawley rats) were prepared, grouped, and tested following the protocol below: • 1. 200 Sprague-Dawley rats (male, 200-230 g) underwent brain stereotaxic surgery after 1 week acclamation in animal facility; • 2. After anesthesia, a bur hole (1 mm in diameter) was made on skull on the left side with a motor drill based on the coordinates: AP +0.5 mm, ML −2.8 mm, DV 6.0 mm relative to Bregma; • 3. 6-OHDA (20 μg at 5 mg/mL) or sterile saline was injected into the left striatum with a microsyringe fitted with a 26-gauge steel cannula. The chemical caused the retrograde neurodegeneration in the distal substantia nigra and impairs dopamine transmission in the nigro-striatal pathway, which eventually led to functional disturbance of motor activities; • 4. Apomorphine and classic rotation test was carried out to screen animals at the end of week 3 post 6-OHDA treatment. Animals that matched lesion type and apomorphine-induced rotational scores were allotted to 11 groups; and • 5. Rats were divided into 11 groups (n=12), each group was applied with the drug(s) at the doses specified in Table 2:
• 6. Dose Formulations • (1) L-DOPA in water (3 mg/mL) was the positive control solution for group 1 (orally for group 1, transdermally for groups 2-11). The volume of administration was 2 mL/kg. Vehicle solution (negative control solution for group 2) was 30% ethanol (v/v). The volume of administration was 1286 μL/kg. Other test solutions (groups 3-11) were freshly prepared every day. • (2) Preparation method of test solutions for groups 3-5: 50.33 mg of Drug A was dissolved in 10 mL of 30% ethanol(v/v). This solution was the stock solution[(2)a]. • a. The test solution for group 5 (high dose group) of Drug A: The stock solution [(2)a] was the test solution for Group 5. The volume of administration was 1286 μL/kg. • b. The test solution for group 4 (moderate dose group) of Drug A: 3.00 mL of the stock solution [(2)a] was diluted to final volume 9.00 mL with 30% ethanol(v/v). This solution was the test solution for Group 4. The volume of administration was 1286 μL/kg. • c. […]

[3] = human, pH 7.4

NC(Cc1ccc(O)c(O)c1)C(=O)O (stereo not drawn) [Compound-31, 2-amino-3-(3,4-dihydroxyphenyl)propanoic acid]
Efficacy in Rotarod test comparing to Vehicle group ([1]; Example 31, 6 mg/kg orally (Group 1), three-week treatment): did not exhibit efficacy
Efficacy in Rotarod test comparing to the negative control group ([1]; Example 33, 6 mg/kg orally, four-week treatment): did not exhibit efficacy
Side effects (dyskinesia at peak dose, end-of-dose deterioration of function etc.) ([1]; Example 33, pro-drug transdermally): caused nausea, vomiting, gastrointestinal bleeding, dyskinesia at peak dose, and end-of-dose deterioration of function
Efficacy in Rotarod test comparing to Vehicle group ([1]; Example 35, 6 mg/kg orally, four-week treatment): did not exhibit efficacy
Side effects (dyskinesia at peak dose, end-of-dose deterioration of function etc.) ([1]; Example 35, pro-drug of dopamine transdermally): caused nausea, vomiting, gastrointestinal bleeding, dyskinesia at peak dose, and end-of-dose deterioration of function
Efficacy in Rotarod test comparing to Vehicle group ([1]; Example 36, 6 mg/kg orally, four-week treatment): did not exhibit efficacy
Side effects (dyskinesia at peak dose, end-of-dose deterioration of function etc.) ([1]; Example 36, pro-drug transdermally): caused nausea, vomiting, gastrointestinal bleeding, dyskinesia at peak dose, and end-of-dose deterioration of function
Side effects (dyskinesia at peak dose, end-of-dose deterioration of function etc.) [2]: caused nausea, vomiting, gastrointestinal bleeding, dyskinesia at peak dose, and end-of-dose deterioration of function
The cumulative amount of test compounds ([3]; 1 h): 0.001 mg
The cumulative amount of test compounds ([3]; 2 h): 0.001 mg
The cumulative amount of test compounds ([3]; 4 h): 0.002 mg
The cumulative amount of test compounds ([3]; 8 h): 0.003 mg
